# Assay: Solubility measurement in water (Test Example)
# Format: physicochemical
# Conditions: 25° C., 1 atm, 24 hr
# Method: In order to evaluate the validity of the method of determining the water insolubility according to the present invention in the Example and Comparative Example, the following testing was performed.
SMILES,water solubility (in words) (100 g of water),amount dissolved in 100 g of water [g]
"c1ccc2ccccc2c1 [Bicyclo[4.4.0]deca-1,3,5,7,9-pentene]",approximated zero,–
CCC(C)O (centres unmarked) [2-butanol],–,30
